Values joined by “and” are separate entries in the source; they are usually repeats but may differ in a detail not shown here. Identical values can stand only once. Inconclusive results and toxic doses are left out.
Test system: L1210 leukemia ip in BDF1 mice, survival T/C
Experiment: NCI In Vivo Anticancer Drug Screen. Data for tumor model L1210 Leukemia (intraperitoneal) in B6D2F1 (BDF1) mice
Settings: endpoint: mean survival time, higher = longer survival
Method in brief: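 Mice bearing the transplanted tumor received compound or vehicle. Survival of the treated group was divided by that of the vehicle-treated control group to give the ratio.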

[1] = dose: 25.0 mg/kg/injection, schedule: Q01DX009 (ip), vehicle: saline
[2] = dose: 50.0 mg/kg/injection, schedule: Q01DX009 (ip), vehicle: saline
[3] = dose: 100.0 mg/kg/injection, schedule: Q04DX003 (ip), vehicle: saline
[4] = dose: 200.0 mg/kg/injection, schedule: Q04DX003 (ip), vehicle: saline
[5] = dose: 400.0 mg/kg/injection, schedule: Q04DX003 (ip), vehicle: saline
[6] = dose: 100.0 mg/kg/injection, schedule: Q01DX009 (ip), vehicle: saline
[7] = dose: 100.0 mg/kg/injection, schedule: Q01DX009 (ip), vehicle: Klucel (hydroxypropylcellulose) (HPC)
[8] = dose: 200.0 mg/kg/injection, schedule: Q01DX009 (ip), vehicle: Klucel (hydroxypropylcellulose) (HPC)
[9] = dose: 100.0 mg/kg/injection, schedule: Q01DX009 (ip), vehicle: saline with Tween-80
[10] = dose: 200.0 mg/kg/injection, schedule: Q01DX009 (ip), vehicle: saline with Tween-80

For `COC(=O)C(=O)CC(=O)c1ccc(C)cc1`, the T/C (dose: 100.0 mg/kg/injection, schedule: Q04DX002 (ip), vehicle: Klucel (hydroxypropylcellulose) (HPC)) was 103 % of control, the T/C (dose: 200.0 mg/kg/injection, schedule: Q04DX002 (ip), vehicle: Klucel (hydroxypropylcellulose) (HPC)) was 95 % of control and the T/C (dose: 400.0 mg/kg/injection, schedule: Q04DX002 (ip), vehicle: Klucel (hydroxypropylcellulose) (HPC)) was 106 % of control.

For `NC(=O)c1cc(Cl)c(OCc2ccccc2)c(Cl)c1`, the T/C (dose: 75.0 mg/kg/injection, schedule: Q01DX001 (ip), vehicle: saline with Tween-80) was 98 % of control, the T/C (dose: 150.0 mg/kg/injection, schedule: Q01DX001 (ip), vehicle: saline with Tween-80) was 103 % of control and the T/C (dose: 300.0 mg/kg/injection, schedule: Q01DX001 (ip), vehicle: saline with Tween-80) was 98 % of control.

In the case of `NC(N)=N/N=C/NN/C=N/N=C(N)N`, the T/C (dose: 15.0 mg/kg/injection, schedule: Q01DX Z (ip), vehicle: saline) is reported as 93 % of control, the T/C (dose: 30.0 mg/kg/injection, schedule: Q01DX Z (ip), vehicle: saline) is reported as 104 % of control and the T/C (dose: 60.0 mg/kg/injection, schedule: Q01DX Z (ip), vehicle: saline) is reported as 115 % of control. The T/C (dose: 120.0 mg/kg/injection, schedule: Q01DX Z (oral), vehicle: saline) was 95 % of control.

With `CCN=C(c1ccc(NC(=O)c2ccc(C(=O)Nc3ccc(C(=NCC)N(CC)CC)cc3)c(Cl)c2)cc1)N(CC)CC` the T/C (dose: 0.94 mg/kg/injection, schedule: Q01DX Z (ip), vehicle: carboxymethylcellulose (CMC)) was 94 % of control.

For `CCN(CC)C(=O)N1C2CCC1CN(C)C2`, the T/C (dose: 12.5 mg/kg/injection, schedule: Q01DX009 (ip), vehicle: saline) was 91 % of control, the T/C (dose: 12.5 mg/kg/injection, schedule: Q04DX003 (ip), vehicle: saline) was 103 % of control and the T/C [1] was 95 % of control. The T/C (dose: 25.0 mg/kg/injection, schedule: Q04DX003 (ip), vehicle: saline) was 105 % of control, the T/C [2] was 86 % of control and the T/C (dose: 50.0 mg/kg/injection, schedule: Q04DX003 (ip), vehicle: saline) was 89 % of control.

For `C[n+]1ccc(Nc2ccc(NC(=O)c3ccc(Nc4cc[n+](C)c5ccc([N+](=O)[O-])cc45)cc3)cc2)cc1`, the T/C (dose: 1.0 mg/kg/injection, schedule: Q01DX009 (ip), vehicle: water) was 99 % of control, the T/C (dose: 2.0 mg/kg/injection, schedule: Q01DX009 (ip), vehicle: water) was 112 % of control and the T/C (dose: 4.0 mg/kg/injection, schedule: Q01DX009 (ip), vehicle: water) was 119 % of control. The T/C (dose: 8.0 mg/kg/injection, schedule: Q01DX009 (ip), vehicle: water) was 116 % of control, the T/C (dose: 16.0 mg/kg/injection, schedule: Q01DX009 (ip), vehicle: water) was 192 % of control and the T/C (dose: 32.0 mg/kg/injection, schedule: Q01DX009 (ip), vehicle: water) was 262 % of control. The T/C [3] was 201 % of control and 219 % of control, the T/C [4] was 213 % of control and the T/C [5] was 150 % of control and 153 % of control.

For `COc1ccc(C(=O)Nc2ccc(Br)cc2)cc1`, the T/C (dose: 100.0 mg/kg/injection, schedule: Q04DX003 (ip), vehicle: saline with Tween-80) was 97 % of control, the T/C (dose: 200.0 mg/kg/injection, schedule: Q04DX003 (ip), vehicle: saline with Tween-80) was 95 % of control and the T/C (dose: 400.0 mg/kg/injection, schedule: Q04DX003 (ip), vehicle: saline with Tween-80) was 105 % of control.

With `O=C1NC(=O)C(=O)N1` the T/C [3] was 96 % of control, the T/C [4] was 96 % of control and the T/C [5] was 86 % of control.

With `CCC(C)C(NC(=O)C(CC(C)C)N(C)C)C(=O)N1CCC2Oc3ccc(cc3)/C=C\NC(=O)C(Cc3ccccc3)NC(=O)C21` (stereo not drawn) the T/C (dose: 100.0 mg/kg/injection, schedule: Q04DX003 (ip), vehicle: Klucel (hydroxypropylcellulose) (HPC)) was 96 % of control, the T/C (dose: 200.0 mg/kg/injection, schedule: Q04DX003 (ip), vehicle: Klucel (hydroxypropylcellulose) (HPC)) was 108 % of control and the T/C (dose: 400.0 mg/kg/injection, schedule: Q04DX003 (ip), vehicle: Klucel (hydroxypropylcellulose) (HPC)) was 94 % of control.

`Oc1ccc2ccccc2c1C(c1ccccc1)c1c(O)ccc2ccccc12` was tested, and the T/C (dose: 87.5 mg/kg/injection, schedule: Q04DX003 (ip), vehicle: carboxymethylcellulose (CMC)) was 106 % of control, the T/C (dose: 175.0 mg/kg/injection, schedule: Q04DX003 (ip), vehicle: carboxymethylcellulose (CMC)) was 95 % of control and the T/C (dose: 350.0 mg/kg/injection, schedule: Q04DX003 (ip), vehicle: carboxymethylcellulose (CMC)) was 111 % of control.

With `O=C(C(F)F)C(F)F` the T/C [2] was 91 % of control, the T/C [6] was 91 % of control and the T/C [3] was 106 % of control. For the same compound, the T/C [4] was 104 % of control.

For `C#CC(C)OCC(O)CCl` (stereo not drawn), the T/C [1] was 97 % of control, the T/C [2] was 105 % of control and the T/C [6] was 103 % of control and 89 % of control. For the same compound, the T/C (dose: 100.0 mg/kg/injection, schedule: Q04DX003 (ip), vehicle: saline sonified) was 97 % of control, the T/C (dose: 200.0 mg/kg/injection, schedule: Q04DX003 (ip), vehicle: saline sonified) was 87 % of control and the T/C (dose: 400.0 mg/kg/injection, schedule: Q04DX003 (ip), vehicle: saline sonified) was 103 % of control.

`c1ccc2ncc(-c3ccc4ccccc4n3)cc2c1` was tested, and the T/C (dose: 100.0 mg/kg/injection, schedule: Q01DX001 (ip), vehicle: Klucel (hydroxypropylcellulose) (HPC)) was 100 % of control, the T/C (dose: 100.0 mg/kg/injection, schedule: Q01DX001 (ip), vehicle: saline) was 107 % of control and the T/C [7] was 97 % of control and 116 % of control. The T/C (dose: 200.0 mg/kg/injection, schedule: Q01DX001 (ip), vehicle: Klucel (hydroxypropylcellulose) (HPC)) was 94 % of control, the T/C (dose: 200.0 mg/kg/injection, schedule: Q01DX001 (ip), vehicle: saline) was 96 % of control and the T/C [8] was 95 % of control and 101 % of control. For the same compound, the T/C (dose: 400.0 mg/kg/injection, schedule: Q01DX001 (ip), vehicle: Klucel (hydroxypropylcellulose) (HPC)) was 100 % of control, the T/C (dose: 400.0 mg/kg/injection, schedule: Q01DX001 (ip), vehicle: saline) was 96 % of control and the T/C (dose: 400.0 mg/kg/injection, schedule: Q01DX009 (ip), vehicle: Klucel (hydroxypropylcellulose) (HPC)) was 94 % of control and 100 % of control.

With `COC(=O)c1ccc[n+](CCc2ccc(OC)c(OC)c2)c1` the T/C (dose: 75.0 mg/kg/injection, schedule: Q01DX001 (ip), vehicle: saline) was 111 % of control.

In the case of `O=C(NO)c1cnccn1`, the T/C (dose: 296.0 mg/kg/injection, schedule: Q01DX015 (ip), vehicle: water) is reported as 92 % of control, the T/C (dose: 666.0 mg/kg/injection, schedule: Q01DX015 (ip), vehicle: water) is reported as 118 % of control and the T/C (dose: 1000.0 mg/kg/injection, schedule: Q01DX015 (ip), vehicle: water) is reported as 120 % of control.

With `O=S(=O)(F)c1cc(Cl)c(O)cc1Cl` the T/C [7] was 97 % of control and the T/C [8] was 101 % of control.

With `CC(/C=N/N=C(N)N)=N\NC(N)=S` the T/C (dose: 15.0 mg/kg/injection, schedule: Q01DX Z (ip), vehicle: carboxymethylcellulose (CMC)) was 98 % of control, the T/C (dose: 30.0 mg/kg/injection, schedule: Q01DX Z (ip), vehicle: carboxymethylcellulose (CMC)) was 101 % of control and the T/C (dose: 30.0 mg/kg/injection, schedule: Q01DX Z (oral), vehicle: carboxymethylcellulose (CMC)) was 103 % of control. The T/C (dose: 60.0 mg/kg/injection, schedule: Q01DX Z (ip), vehicle: carboxymethylcellulose (CMC)) was 111 % of control, the T/C (dose: 60.0 mg/kg/injection, schedule: Q01DX Z (oral), vehicle: carboxymethylcellulose (CMC)) was 103 % of control and the T/C (dose: 120.0 mg/kg/injection, schedule: Q01DX Z (ip), vehicle: carboxymethylcellulose (CMC)) was 114 % of control. The T/C (dose: 120.0 mg/kg/injection, schedule: Q01DX Z (oral), vehicle: carboxymethylcellulose (CMC)) was 106 % of control and the T/C (dose: 240.0 mg/kg/injection, schedule: Q01DX Z (oral), vehicle: carboxymethylcellulose (CMC)) was 105 % of control.

In the case of `CC(O)C(C)(C)C(O)C(=O)NCCSc1ccc(Cl)cc1` (stereo not drawn), the T/C (dose: 100.0 mg/kg/injection, schedule: Q01DX001 (ip), vehicle: acetone) is reported as 104 % of control, the T/C (dose: 200.0 mg/kg/injection, schedule: Q01DX001 (ip), vehicle: acetone) is reported as 104 % of control and the T/C (dose: 400.0 mg/kg/injection, schedule: Q01DX001 (ip), vehicle: acetone) is reported as 102 % of control.

`COc1ccc(CN(C)N=Nc2ccc(C#N)cc2)cc1` was tested, and the T/C [9] was 98 % of control, the T/C [10] was 119 % of control and the T/C (dose: 400.0 mg/kg/injection, schedule: Q01DX009 (ip), vehicle: saline with Tween-80) was 124 % of control.

In the case of `CCOC(=O)CCc1[nH]c2nnc(C)cc2c1[N+](=O)[O-]`, the T/C (dose: 56.3 mg/kg/injection, schedule: Q04DX002 (ip), vehicle: Klucel (hydroxypropylcellulose) (HPC)) is reported as 100 % of control, the T/C (dose: 112.5 mg/kg/injection, schedule: Q04DX002 (ip), vehicle: Klucel (hydroxypropylcellulose) (HPC)) is reported as 106 % of control and the T/C (dose: 225.0 mg/kg/injection, schedule: Q04DX002 (ip), vehicle: Klucel (hydroxypropylcellulose) (HPC)) is reported as 91 % of control.

In the case of `CCOC1=CC(=O)C(C)(CC=C(C)C)C(C)C1` (stereo not drawn), the T/C (dose: 50.0 mg/kg/injection, schedule: Q01DX009 (ip), vehicle: saline with Tween-80) is reported as 100 % of control, the T/C [9] is reported as 92 % of control and the T/C [10] is reported as 96 % of control.

From PubChem BioAssay AID248 (DTP/NCI, 2004)
